Laboratory results taken from patent publication EP4620476A1, “ANTIVIRAL COMPOSITION CONTAINING INCLUSION COMPOUNDS WITH CYCLODEXTRINS AS ACTIVITY MODULATORS AND ANTISEPTIC ACTIVES AND USES THEREOF” (Silva, Renata Moisés Iwamizu, priority 2022, dated 2024).
Structures can show the parent of a compound that is named as a salt.

Experiments:
[1] = cited from earlier work
HSV-1 = test: Virucidal assay: HSV-1 incubated with product, then added to Vero cells, MTT readout; assay type: cell-based; settings: 3 µg/mL
Description: (§1) The product was evaluated for its effective concentration against the virus without causing toxicity to the tested cells. The virus (HSV-1) was added to different dilutions of the product and incubated for 1 hour at 37°C. Then, the solution was diluted (1:10) and added to Vero cells (ATCC CCL-81) for incubation for 72 hours at 37°C and 5% CO2. Positive control (virus without treatment with the inclusion compounds) and negative control (cells without virus and without treatment) were used, under the same conditions, in all tests. The results were evaluated by MTT (Mosmann, 1983; Sieuwerts et al., 1995). The assays were carried out in a NB-2 laboratory (Biosafety Level 2) following Good Laboratory Practices (GLP) and in accordance with the recommendations of ANVISA (Art. 1 and Art. 3 of IN 04/13 and IN 12/16).

[2] = Cytotoxicity in Vero cells (MTT); assay type: cell-based; settings: monkey
Description: as §1

SMILES	plasma protein binding [1]	inactivation of HSV-1 (HSV-1)	CC50 at 72 h [2]
Nc1nc2c(ncn2COCCO)c(=O)[nH]1 [Acyclovir]	less than 20%		
N=C(NCCCCCCNC(=N)NC(=N)Nc1ccc(Cl)cc1)NC(=N)Nc1ccc(Cl)cc1 [digluconate salt of chlorhexidine]		unable to inactivate HSV-1	> 3 µg/mL
